Assay [1] addresses T1, CDK4 (Homo sapiens, UniProt P11802).
T1 construct: endogenous in cells; host or cells: Calu-1
Briefly: CDK4 percentage degradation in Calu-1 cells (immunoblotting). It counts as cell-based. The conditions noted are these: Calu-1 cells, 16 hours; for inhibition at 10 µM: read-out: CDK4 Degradation (10 μM); for inhibition at 0.2 µM: 200 nM, read-out: CDK4 Degradation (200 nM). In a few lines:
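Cultured cells were rinsed once in cold PBS and lysed in cold RIPA buffer containing protease and phosphatase inhibitors, with gentle agitation at 4° C. for 30 min. Lysates were centrifuged at 13,000 rpm for 10 min at 4° C., and protein was quantified by BCA. Samples were then separated by SDS-PAGE, detected with ECL, and the CDK4 bands quantified in Image Lab.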

In assay [2] the test system is cyclin D1. Briefly: Cyclin D1 percentage degradation in Calu-1 cells (immunoblotting). It counts as cell-based. The conditions noted are these: 16 hours. The essentials: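 Cells were rinsed once in cold PBS and lysed in cold RIPA buffer containing protease and phosphatase inhibitors, with gentle agitation at 4° C. for 30 min. Lysates were spun at 13,000 rpm for 10 min at 4° C., protein was measured by BCA, and samples were boiled in Laemmli buffer at 99° C. for 5 min before SDS-PAGE immunoblotting.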

T1 sequence (P11802 2-303 limits assumed): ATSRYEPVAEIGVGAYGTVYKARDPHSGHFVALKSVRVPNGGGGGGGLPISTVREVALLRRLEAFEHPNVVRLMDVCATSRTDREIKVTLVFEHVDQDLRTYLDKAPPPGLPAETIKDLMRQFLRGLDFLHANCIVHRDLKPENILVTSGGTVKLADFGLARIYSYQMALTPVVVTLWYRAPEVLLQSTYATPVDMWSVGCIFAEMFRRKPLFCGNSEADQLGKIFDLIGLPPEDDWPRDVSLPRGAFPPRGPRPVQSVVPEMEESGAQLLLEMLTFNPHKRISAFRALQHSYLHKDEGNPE
T1 sequence (P24385 whole entry partner): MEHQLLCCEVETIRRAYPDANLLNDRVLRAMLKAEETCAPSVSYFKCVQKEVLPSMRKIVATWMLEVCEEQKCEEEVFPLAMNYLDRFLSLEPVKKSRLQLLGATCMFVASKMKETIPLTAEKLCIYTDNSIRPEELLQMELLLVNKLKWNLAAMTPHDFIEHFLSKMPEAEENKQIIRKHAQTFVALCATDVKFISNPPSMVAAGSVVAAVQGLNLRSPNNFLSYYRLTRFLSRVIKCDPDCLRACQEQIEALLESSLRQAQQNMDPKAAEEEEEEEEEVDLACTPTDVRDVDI
T1 sequence (Q16531 2-1140 limits assumed, further chain): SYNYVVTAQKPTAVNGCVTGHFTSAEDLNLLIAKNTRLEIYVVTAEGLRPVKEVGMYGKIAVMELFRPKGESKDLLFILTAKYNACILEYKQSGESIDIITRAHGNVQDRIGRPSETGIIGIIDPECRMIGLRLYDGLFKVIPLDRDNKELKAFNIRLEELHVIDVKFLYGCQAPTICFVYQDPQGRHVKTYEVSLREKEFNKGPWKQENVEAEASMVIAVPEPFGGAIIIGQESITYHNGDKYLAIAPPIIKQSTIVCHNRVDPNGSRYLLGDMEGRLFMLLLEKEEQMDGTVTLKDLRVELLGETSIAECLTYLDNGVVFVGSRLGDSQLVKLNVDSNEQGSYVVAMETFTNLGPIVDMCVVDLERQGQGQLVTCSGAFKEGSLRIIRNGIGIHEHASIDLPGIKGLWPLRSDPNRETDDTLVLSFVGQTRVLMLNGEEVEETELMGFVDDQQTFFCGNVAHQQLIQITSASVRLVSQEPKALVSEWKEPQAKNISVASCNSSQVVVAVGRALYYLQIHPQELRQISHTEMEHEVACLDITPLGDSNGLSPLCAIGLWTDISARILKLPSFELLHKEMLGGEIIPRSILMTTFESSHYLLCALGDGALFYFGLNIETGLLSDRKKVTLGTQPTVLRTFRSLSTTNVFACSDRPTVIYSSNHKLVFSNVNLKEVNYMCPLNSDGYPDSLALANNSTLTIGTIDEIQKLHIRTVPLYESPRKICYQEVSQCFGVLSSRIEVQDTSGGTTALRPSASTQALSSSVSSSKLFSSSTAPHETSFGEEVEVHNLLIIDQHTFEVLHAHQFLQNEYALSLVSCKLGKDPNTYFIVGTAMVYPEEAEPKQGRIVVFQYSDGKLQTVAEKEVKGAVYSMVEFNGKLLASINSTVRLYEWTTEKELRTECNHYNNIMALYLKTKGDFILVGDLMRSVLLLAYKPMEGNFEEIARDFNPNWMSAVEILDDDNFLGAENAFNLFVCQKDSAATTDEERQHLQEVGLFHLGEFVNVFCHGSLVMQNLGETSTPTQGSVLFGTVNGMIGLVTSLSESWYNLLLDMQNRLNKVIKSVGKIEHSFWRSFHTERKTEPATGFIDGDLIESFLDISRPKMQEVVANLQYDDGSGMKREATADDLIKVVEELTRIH

In the case of `Cc1nc(NC(=O)c2ccccc2NC(=O)CCCCCCCCNC(=O)CN2CCN(c3ccc(Nc4ncc5cc6n(c5n4)C4(CCCCC4)CNC6=O)nc3)CC2)sc1C` [CPD-321, N-(4,5-Dimethylthiazol-2-yl)-2-(9-(2-(4-(6-((6′-oxo-7′,8′-dihydro-6′H-spiro[cyclohexane-1,9′-pyrazino[1′,2′:1,5]pyrrolo[2,3-d]pyrimidin]-2′-yl)amino)pyridin-3-yl)piperazin-1-yl)acetamido)nonanamido)benzamide], the inhibition at 10 µM in assay [1] was 50 to 80%. Moreover, the “CyclinD1 Degradation (10 μM)” value in assay [2] is on record as “A (protein percentage degradation >= 80%)”.

`Cc1nc(NC(=O)c2ccccc2NC(=O)CCOCCNC(=O)CN2CCN(c3ccc(Nc4ncc5cc6n(c5n4)C4(CCCCC4)CNC6=O)nc3)CC2)sc1C` [CPD-322, N-(4,5-Dimethylthiazol-2-yl)-2-(3-(2-(2-(4-(6-((6′-oxo-7′,8′-dihydro-6′H-spiro[cyclohexane-1,9′-pyrazino[1′,2′:1,5]pyrrolo[2,3-d]pyrimidin]-2′-yl)amino)pyridin-3-yl)piperazin-1-yl)acetamido)ethoxy)propanamido)benzamide]: the inhibition at 10 µM in assay [1] is 50 to 80%. In assay [2], the “CyclinD1 Degradation (10 μM)” value is “A (protein percentage degradation >= 80%)”.

Consider `Cc1nc(NC(=O)c2ccccc2NC(=O)CCOCCOCCNC(=O)CN2CCN(c3ccc(Nc4ncc5cc6n(c5n4)C4(CCCCC4)CNC6=O)nc3)CC2)sc1C` [CPD-323, N-(4,5-Dimethylthiazol-2-yl)-2-(3-(2-(2-(2-(4-(6-((6′-oxo-7′,8′-dihydro-6′H-spiro[cyclohexane-1,9′-pyrazino[1′,2′:1,5]pyrrolo[2,3-d]pyrimidin]-2′-yl)amino)pyridin-3-yl)piperazin-1-yl)acetamido)ethoxy)ethoxy)propanamido)benzamide], for which the inhibition at 10 µM in assay [1] lay in the range of 50 to 80%. For the same molecule, the “CyclinD1 Degradation (10 μM)” value in assay [2] is given as “A (protein percentage degradation >= 80%)”.

Consider `Cc1nc(NC(=O)c2ccccc2NC(=O)CCOCCOCCOCCNC(=O)CN2CCN(c3ccc(Nc4ncc5cc6n(c5n4)C4(CCCCC4)CNC6=O)nc3)CC2)sc1C` [CPD-324, N-(4,5-Dimethylthiazol-2-yl)-2-(2-oxo-1-(4-(6-((6′-oxo-7′,8′-dihydro-6′H-spiro[cyclohexane-1,9′-pyrazino[1′,2′:1,5]pyrrolo[2,3-d]pyrimidin]-2′-yl)amino)pyridin-3-yl)piperazin-1-yl)-6,9,12-trioxa-3-azapentadecan-15-amido)benzamide], for which the inhibition at 10 µM in assay [1] lay in the range of 50 to 80%. Moreover, the “CyclinD1 Degradation (10 μM)” value in assay [2] is reported as “A (protein percentage degradation >= 80%)”.

On to `Cc1nc(NC(=O)c2ccccc2NC(=O)CCOCCOCCOCCOCCNC(=O)CN2CCN(c3ccc(Nc4ncc5cc6n(c5n4)C4(CCCCC4)CNC6=O)nc3)CC2)sc1C` [CPD-325, N-(4,5-Dimethylthiazol-2-yl)-2-(2-oxo-1-(4-(6-((6′-oxo-7′,8′-dihydro-6′H-spiro[cyclohexane-1,9′-pyrazino[1′,2′:1,5]pyrrolo[2,3-d]pyrimidin]-2′-yl)amino)pyridin-3-yl)piperazin-1-yl)-6,9,12,15-tetraoxa-3-azaoctadecan-18-amido)benzamide], for which the inhibition at 10 µM in assay [1] is 50 to 80%. In addition, in assay [2], the “CyclinD1 Degradation (10 μM)” value is given as “A (protein percentage degradation >= 80%)”.

Take `Cc1nc(NC(=O)c2ccccc2NC(=O)CCOCCOCCOCCOCCOCCNC(=O)CN2CCN(c3ccc(Nc4ncc5cc6n(c5n4)C4(CCCCC4)CNC6=O)nc3)CC2)sc1C` [CPD-326, N-(4,5-Dimethylthiazol-2-yl)-2-(2-oxo-1-(4-(6-((6′-oxo-7′,8′-dihydro-6′H-spiro[cyclohexane-1,9′-pyrazino[1′,2′:1,5]pyrrolo[2,3-d]pyrimidin]-2′-yl)amino)pyridin-3-yl)piperazin-1-yl)-6,9,12,15,18-pentaoxa-3-azahenicosan-21-amido)benzamide]: the inhibition at 10 µM in assay [1] was in the range of 50 to 80%. In assay [2], the “CyclinD1 Degradation (10 μM)” value is reported as “A (protein percentage degradation >= 80%)”.

As for `Cc1nc(NC(=O)c2ccccc2NC(=O)CCOCCOCCOCCOCCOCCOCCNC(=O)CN2CCN(c3ccc(Nc4ncc5cc6n(c5n4)C4(CCCCC4)CNC6=O)nc3)CC2)sc1C` [CPD-327, N-(4,5-Dimethylthiazol-2-yl)-2-(2-oxo-1-(4-(6-((6′-oxo-7′,8′-dihydro-6′H-spiro[cyclohexane-1,9′-pyrazino[1′,2′:1,5]pyrrolo[2,3-d]pyrimidin]-2′-yl)amino)pyridin-3-yl)piperazin-1-yl)-6,9,12,15,18,21-hexaoxa-3-azatetracosan-24-amido)benzamide], in assay [1], the inhibition at 10 µM lay in the range of 50 to 80%. Moreover, the “CyclinD1 Degradation (10 μM)” value in assay [2] is given as “A (protein percentage degradation >= 80%)”.

Turning to `CC(=O)c1c(C)c2cnc(Nc3ccc(N4CCN(CC(=O)NCCCCCCCNc5cccc(C(=O)Nc6ccc(C)nc6)c5C)CC4)cn3)nc2n(C2CCCC2)c1=O` [CPD-328, 3-((7-(2-(4-(6-((6-Acetyl-8-cyclopentyl-5-methyl-7-oxo-7,8-dihydropyrido[2,3-d]pyrimidin-2-yl)amino)pyridin-3-yl)piperazin-1-yl)acetamido)heptyl)amino)-2-methyl-N-(6-methylpyridin-3-yl)benzamide], the inhibition at 0.2 µM in assay [1] is below 30%. In assay [2], the “CyclinD1 Degradation (200 nM)” value is reported as “D (protein percentage degradation <30%)”.

`CC(=O)c1c(C)c2cnc(Nc3ccc(N4CCN(CC(=O)NCCCCCCCNc5cccc(C(=O)Nc6cc(C)n(C)n6)c5C)CC4)cn3)nc2n(C2CCCC2)c1=O` [CPD-329, 3-((7-(2-(4-(6-((6-Acetyl-8-cyclopentyl-5-methyl-7-oxo-7,8-dihydropyrido[2,3-d]pyrimidin-2-yl)amino)pyridin-3-yl)piperazin-1-yl)acetamido)heptyl)amino)-N-(1,5-dimethyl-1H-pyrazol-3-yl)-2-methylbenzamide]: the inhibition at 0.2 µM in assay [1] was above 80%. Besides, in assay [2], the “CyclinD1 Degradation (200 nM)” value is “A (protein percentage degradation >=80%)”.

With `CC(=O)c1c(C)c2cnc(Nc3ccc(N4CCN(CC(=O)NCCOCCOCCC(=O)Nc5cccc(Cl)c5C(=O)Nc5ccc(C)cn5)CC4)cn3)nc2n(C2CCCC2)c1=O` [CPD-337], the inhibition at 0.2 µM in assay [1] is below 30%. In assay [2], the “CyclinD1 Degradation (200 nM)” value is reported as “D (protein percentage degradation <30%)”.

For `CC(=O)c1c(C)c2cnc(Nc3ccc(N4CCN(CC(=O)NCCCCCCCNc5nc(C)ccc5C(=O)Nc5nc(C)c(C)s5)CC4)cn3)nc2n(C2CCCC2)c1=O` [CPD-338, 2-((7-(2-(4-(6-((6-Acetyl-8-cyclopentyl-5-methyl-7-oxo-7,8-dihydropyrido[2,3-d]pyrimidin-2-yl)amino)pyridin-3-yl)piperazin-1-yl)acetamido)heptyl)amino)-N-(4,5-dimethylthiazol-2-yl)-6-methylnicotinamide], in assay [1], the inhibition at 0.2 µM lay in the range of 50 to 80%. In addition, the “CyclinD1 Degradation (200 nM)” value in assay [2] was “A (protein percentage degradation >=80%)”.

Turning to `CNc1ccc(C(=O)Nc2ccc(C)cn2)c(NC(=O)CCOCCOCCNC(=O)CN2CCN(c3ccc(Nc4ncc5c(C)c(C(C)=O)c(=O)n(C6CCCC6)c5n4)nc3)CC2)c1` [CPD-339, 2-(3-(2-(2-(2-(4-(6-((6-Acetyl-8-cyclopentyl-5-methyl-7-oxo-7,8-dihydropyrido[2,3-d]pyrimidin-2-yl)amino)pyridin-3-yl)piperazin-1-yl)acetamido)ethoxy)ethoxy)propanamido)-4-(methylamino)-N-(5-methylpyridin-2-yl)benzamide], the inhibition at 0.2 µM in assay [1] was above 80%. The “CyclinD1 Degradation (200 nM)” value in assay [2] was “A (protein percentage degradation >=80%)”.

With `CNC(=O)c1ccc(C)nc1NCCCCCCCNC(=O)CN1CCN(c2ccc(Nc3ncc4c(C)c(C(C)=O)c(=O)n(C5CCCC5)c4n3)nc2)CC1` [CPD-340], in assay [1], the inhibition at 0.2 µM is below 30%. Further, the “CyclinD1 Degradation (200 nM)” value in assay [2] is given as “D (protein percentage degradation <30%)”.

Regarding `COc1ccc(NC(=O)c2cccc(NCCOCCOCCNC(=O)CN3CCN(c4ccc(Nc5ncc6c(C)c(C(C)=O)c(=O)n(C7CCCC7)c6n5)nc4)CC3)c2C)nn1` [CPD-341, 3-((2-(2-(2-(2-(4-(6-((6-Acetyl-8-cyclopentyl-5-methyl-7-oxo-7,8-dihydropyrido[2,3-d]pyrimidin-2-yl)amino)pyridin-3-yl)piperazin-1-yl)acetamido)ethoxy)ethoxy)ethyl)amino)-N-(6-methoxypyridazin-3-yl)-2-methylbenzamide], in assay [1], the inhibition at 0.2 µM was below 30%. Besides, the “CyclinD1 Degradation (200 nM)” value in assay [2] is “D (protein percentage degradation <30%)”.

As to `COc1ccc(NC(=O)c2ccccc2NC(=O)CCOCCOCCNC(=O)CN2CCN(c3ccc(Nc4ncc5c(C)c(C(C)=O)c(=O)n(C6CCCC6)c5n4)nc3)CC2)nc1` [CPD-342, 2-(3-(2-(2-(2-(4-(6-((6-Acetyl-8-cyclopentyl-5-methyl-7-oxo-7,8-dihydropyrido[2,3-d]pyrimidin-2-yl)amino)pyridin-3-yl)piperazin-1-yl)acetamido)ethoxy)ethoxy)propanamido)-N-(5-methoxypyridin-2-yl)benzamide], the inhibition at 0.2 µM in assay [1] is 50 to 80%. In addition, the “CyclinD1 Degradation (200 nM)” value in assay [2] is “A (protein percentage degradation >=80%)”.

Regarding `COc1ccc(NC(=O)c2ccccc2NC(=O)CCN2CCN(CCNC(=O)CN3CCN(c4ccc(Nc5ncc6c(C)c(C(C)=O)c(=O)n(C7CCCC7)c6n5)nc4)CC3)CC2)nn1` [CPD-345, 2-(3-(4-(2-(2-(4-(6-((6-Acetyl-8-cyclopentyl-5-methyl-7-oxo-7,8-dihydropyrido[2,3-d]pyrimidin-2-yl)amino)pyridin-3-yl)piperazin-1-yl)acetamido)ethyl)piperazin-1-yl)propanamido)-N-(6-methoxypyridazin-3-yl)benzamide], the inhibition at 0.2 µM in assay [1] was 50 to 80%. Further, the “CyclinD1 Degradation (200 nM)” value in assay [2] is “A (protein percentage degradation >=80%)”.
